Results published in patent US20150225454A1, “TETRABRANCHED PEPTIDES AND ANALOGUES AS A NEW CLASS OF ANTIMICROBIALS AND THEIR PREPARATION THEREOF” (priority 2012, published 2015).
Converted amounts (≈) assume the structure as drawn. Read-outs that look alike come from different tables or passages of the source. Where a SMILES comes first, the peptide text is derived from it. Bridges are numbered along the chain shown (N, C = ends). Roman numbers before positions name the chains, in order.

How the values were obtained:
Assay type in all cases: cell-based
[1] = system: C. albicans (ATCC 10231 and DF2672R); conditions: for time to 4 log reduction (99.99%) in viable cells: ATCC strain
Method: The time-kill kinetics was measured for two strains of C. albicans (ATCC 10231 and DF2672R). The cultures were grown overnight in SD broth and the cell concentration was adjusted to 10^5-10^6 CFU/ml with phosphate buffer. The peptide or antifungals were added to the individual cultures. […] The test solution was incubated at 37° C. with constant shaking. 100 μL of the suspension is withdrawn at predetermined time points, serially diluted (10^2 or 10^3 fold) and poured into the SDA plate. The plate was incubated for 48 h at 37° C. for colony counting. The data were expressed in terms of % cell viability relative to the positive control.

C. albicans [2] = conditions: 50% tear fluid
Method: For all the experiments, unless otherwise stated, ATCC 10231 strain was used. B4010 (1 mg/ml) was incubated with trypsin (enzyme:peptide ratio 1:100) at 37° C. 20 μL aliquot of this mixture was withdrawn at various time intervals (0.5, 1, 2, 4 and 6 h) and mixed with 1 μL of trypsin inhibitor. The antifungal activity of the peptide was determined by adding this mixture to 180 μl of inoculum and monitoring the growth at OD600 for 24 h. Similar experiments performed in the presence of trypsin/trypsin inhibitor (without B4010) were used as a positive control. For assessing the antifungal activity in tear fluid (TF), the peptide was dissolved in freshly collected rabbit TF and incubated at 37° C. for 6 h. After incubation, an equal volume of an overnight culture of C. albicans (˜10^6 CFU/ml) was mixed with peptides in tear fluid and incubated at 37° C. for 24 h. The final concentrations of the peptide were at 4.4, 8.8 and 22 μM. A 100 μL aliquot of serial dilutions (10^2 or 10^3 times) of this mixture were inoculated on a SD agar plate and then incubated for 48 h at 37° C. Culture alone and culture with 50% tear fluid served as the positive control. The data was expressed in % killing with respect to culture without tear fluid.

C. albicans [3] = assay: Cell viability assay under diS-C3-5 assay conditions; conditions: concentration exceeding 4×MIC
Method: To verify if the dissipation of membrane potential is linked to candidacidal activity, a cell viability assay was performed under identical conditions.

C. albicans [4] = system: C. albicans
Method: For the effects of energy poisons and ion channel inhibitors, yeast cells (10^5-10^6 CFU/ml) were incubated for 2 h with or without additives at 37° C. A final concentration of 5.5 μM B4010 peptide was added to the cell suspension and incubated further for another 1.5 h at 37° C. Each cell suspension was further diluted and 100 μl of the cells were plated and incubated at 37° C. SDA plates with additives (and no peptide) served as the positive control. Cell viability was obtained by counting the number of colonies formed in each plate after 48 h incubation at 37° C. The final concentrations of the additives were: CCCP (5 μM), NaN3 (5 mM), 4-AP (1 mM), NPPB (0.5 mM), […] (1 mM) and tetra ethyl ammonium chloride (15 mM). The reported values were averages of two independent duplicate experiments. Control experiments with all the additives were also performed to assess the toxicity of the additives to C. albicans.

[5] = system: C. albicans 2672R and C. albicans 1976R; conditions: two clinical isolates
Method: The effect of 5% human serum on the activities of B4010 against two C. albicans clinical isolates was determined. The human male serum was centrifuged at 13,000 rpm for 10 mins in order to remove the lipids and the supernatant was collected. The MIC values against clinical isolates of C. albicans 2672R and C. albicans 1976R were determined both in standard medium (SD broth) as well as in standard medium containing 5% serum supernatant as before.

CC(C)[C@H](NC(=O)[C@H](CCCCN)NC(=O)[C@H](CCCNC(=N)N)NC(=O)CNC(=O)[C@@H](N)CCCNC(=N)N)C(=O)N[C@H](C(=O)N[C@@H](CCCNC(=N)N)C(=O)N[C@@H](CCCNC(=N)N)C(=O)NCCCC[C@H](NC(=O)[C@H](CCCNC(=N)N)NC(=O)[C@H](CCCNC(=N)N)NC(=O)[C@@H](NC(=O)[C@@H](NC(=O)[C@H](CCCCN)NC(=O)[C@H](CCCNC(=N)N)NC(=O)CNC(=O)[C@@H](N)CCCNC(=N)N)C(C)C)C(C)C)C(=O)NCCCC[C@H](NC(=O)[C@H](CCCCNC(=O)[C@H](CCCNC(=N)N)NC(=O)[C@H](CCCNC(=N)N)NC(=O)[C@@H](NC(=O)[C@@H](NC(=O)[C@H](CCCCN)NC(=O)[C@H](CCCNC(=N)N)NC(=O)CNC(=O)[C@@H](N)CCCNC(=N)N)C(C)C)C(C)C)NC(=O)[C@H](CCCNC(=N)N)NC(=O)[C@H](CCCNC(=N)N)NC(=O)[C@@H](NC(=O)[C@@H](NC(=O)[C@H](CCCCN)NC(=O)[C@H](CCCNC(=N)N)NC(=O)CNC(=O)[C@@H](N)CCCNC(=N)N)C(C)C)C(C)C)C(=O)N[C@@H](CCCCN)C(=O)O)C(C)C [Peptide B4010] (I: H-RGRKVVRRKKK-OH / II: H-RGRKVVRRK / III: H-RGRKVVRR / IV: H-RGRKVVRR; amide I:9-IV:C, I:10-II:C, II:9-III:C; N-terminus and C-terminus assumed)
time to complete killing ([1]; 4×MIC): 30 min | killing ([1]; ATCC 10231, 1 h, 1): ~91% | killing ([1]; ATCC 10231, 48 h, 2): ~97% | time to 3 log reductions of viable cells ([1]; ATCC and clinical isolates, 2× or 4×MIC): less than 1 h | time to 4 log reduction (99.99%) in viable cells ([1]; 4×MIC): ≤ 20 minutes | time to 4 log reduction (99.99%) in viable cells ([1]; 8×MIC): ≤ 10 minutes | time to complete killing ([1]; C. albicans DF2672R, 2×MIC): 60 min | candidacidal activity (C. albicans [2]; 22 μM): no loss of activity | candidacidal activity (C. albicans [2]; 4.4 and 8.8 μM): moderately suppressed | cell viability (C. albicans [3]): complete loss of viability | loss of viability (C. albicans [4]): 54±6% | protection from B4010-induced lethality (C. albicans [4]; cells pre-incubated with CCCP): partial protection | viability (C. albicans [4]; cells pretreated with TEA and 4-AP): significant loss of viability | protection from B4010-induced lethality (C. albicans [4]; presence of NaN3): complete protection | MIC ([5]; 5% human serum): 5.5 µM (≈ 25.1 µg/mL) | MIC ([5]; without serum): 0.34 µM (≈ 1.55 µg/mL)
